Measurements as given in patent US10344032B2, “Agents for treating neurogenic inflammation and neuropathic hyperalgesia related disorders” (PÉCSI TUDOMÁNYEGYETEM, priority 2014, dated 2019).

Columns and labels:
sst4 receptor = target: T1, sst4 receptor (Homo sapiens, UniProt P31391); experiment: Somatostatin sst4 receptor-coupled G-protein activation assay ([35S]GTPγS binding); format: biochemical; conditions: 100 nM concentration; membrane fractions of CHO cells stably expressing the sst4 receptor; percentage over specific binding in absence of agonists
T1 construct: expressed in transfected cells
Excerpt: [^35S]GTPγS binding assay is a functional test determining agonist-induced and receptor-mediated G-protein activation which is based on the increase in guanine nucleotide exchange at G-proteins upon agonist stimulation. The interaction of a G protein-coupled receptor (GPCR) with the G protein is the first step in the transduction of the receptor binding signal to the activation of the second-messenger systems. We measured the level of [^35S]-GTPγS bound to the α subunit of G proteins and determined the efficacy of the compounds. Compounds which elicited 200% [^35S]GTPγS binding in nanomolar concentration were considered effective agonist. The examined compounds were added into the medium in 1 nM, 10 nM, 100 nM 1 μM and 10 μM concentrations.
Membrane fractions were prepared from CHO cells stably expressing the sst4 receptor in Tris-EGTA buffer (50 mM Tris-HCl, 1 mM EGTA, 3 mM MgCl2, 100 mM NaCl, pH 7.4). These membrane fractions (˜10 μg of protein/sample) were incubated at 30° C. for 60 min in the same Tris-EGTA buffer containing [^35S]GTPγS (0.05 nM) and increasing concentrations (10^−9 to 10^−5 M) of test compounds in the presence of 30 μM GDP in a final volume of 500 μl. Non-specific binding was determined in the presence of 10 μM unlabelled GTPγS. Total binding was measured in the absence of test compounds. To calculate the specific binding, non-specific binding was subtracted from total binding. The reaction was terminated by filtrating the samples through Whatman GF/B glass fiber filters. Using 48-well Slot Blot Manifold from Cleaver Scientific filters were washed three times with ice-cold 50 mM Tris-HCl buffer (pH 7.4). After drying for 60 min at 37° C., radioactivity was measured in scintillation liquid in a Packard Tri-Carb 2800 TR scintillation counter. Test compound-induced G-protein stimulation was given as percentage over the specific [^35S]GTPγS binding observed in the absence of agonists.

rat [1] = experiment: Plantar incision-induced mechanical allodynia (dynamic plantar aesthesiometer), postoperative pain model; format: in vivo; conditions: 100 μg/kg p.o., measured 60 min later; one day after plantar incision; dynamic plantar aesthesiometry
Protocol: Rats were anaesthesized with sodium-pentobarbital (Euthasol, 40 mg/kg i.p.) and a 1 cm longitudinal incision was made through the skin, fascia and muscle of the plantar aspect of the hindpaw. Significant decrease of both the thermonociceptive and mechanonociceptive thresholds (heat and mechanical allodynia) of the paw develops 1 day after this procedure.
One hundred and forty five (145) female Wistar rats (150-250 g) kept in the Animal House of the University of Pecs in a temperature-controlled room provided with a 12-hour light-dark cycle, standard rat chow and water ad libitum were used in this experimental series. They were brought to the air-conditioned laboratory the day before the experiment started. Throughout the total study the same assistant handled all the animals. […] Touch sensitivity was measured with a dynamic plantar aesthesiometer (DPA) and the thermonociceptive threshold was determined with an increasing temperature water-bath (ITWB) on the same rats (see below). […] Test compounds were administered p.o. and post-dose touch sensitivity and thermonociceptive thresholds were measured 60 min later. […]
a) Touch sensitivity of the plantar surface of the paw was measured with the Ugo Basile Dynamic Plantar Aesthesiometer (DPA; 37400, Comerio, Italy), which is an electronic von Frey device. […]

rat [2] = experiment: Partial sciatic nerve ligation (Seltzer operation) mechanical hyperalgesia (Randall-Selitto test); format: in vivo; conditions: 100 μg/kg p.o., 60 min; 7 days after partial sciatic nerve ligation; Randall-Sellitto test
Protocol: Wistar rats were anaesthetised with sodium-pentobarbital (Euthasol, 50 mg/kg i.p.). The common sciatic nerve was exposed unilaterally on the right side high in the thigh and ⅓-½ of the nerve trunk was carefully separated and tightly ligated using a siliconised silk suture (Ethicone 9-0). Then the wound was closed and the animals were allowed to survive for 7 days (Seltzer et al., 1990). During this period, signs of spontaneous pain (holding the legs in elevated position), mechanical hyperalgesia and allodynia developed.
Mechanonociceptive threshold of the hindpaws was measured with analgesimetry (Randall-Sellitto test) and touch sensitivity of the plantar surface with dynamic plantar aesthesiometry on the same animals. Hyperalgesia (decrease of the mechanonociceptive threshold) and allodynia (decrease of touch sensitivity) were expressed in % compared to the initial pre-operation control values. Significant decrease of the mechanonociceptive thresholds, as well as touch sensitivity thresholds developed 7 days after the surgery (Szolcsanyi et al. 2003; Sandor et al. 2006). […]
b) The mechanonociceptive thresholds of the hindpaw was measured with the Ugo Basile Analgesimeter (7210, Comerio, Italy; Randall-Selitto test). […] The threshold force which elicited withdrawal was read on an analog scale calibrated in grams. […]

[3] = tested on: sensory nerve terminals of isolated rat tracheae; experiment: Electrical field stimulation-induced release of CGRP from sensory nerve terminals of isolated rat tracheae; conditions: 500 nM; absolute release = stimulated + post-stimulated fractions minus basal release
Protocol: Rats were exsanguinated in deep anaesthesia (sodium thiopental, 50 mg/kg i.p.), then the whole trachea was removed and cleaned of fat and adhering connective tissues. Tracheae from two rats were placed into the same 1.8 ml organ bath to obtain sufficient amount of released peptide and perfused (1 ml/min) with pH—(7.2) controlled oxygenized Krebs solution for 60 minutes (equilibration period) at 37° C. temperature. After discontinuation of the flow, the solution was changed three times for 8 minutes to produce pre-stimulated, stimulated, post-stimulated fractions. Electrical field stimulation (40 V, 0.1 ms, 10 Hz for 120 s; 1200 pulses) was performed to elicit neurotransmitter release at the beginning of the second 8-minute period. […]
CGRP concentration was determined from 400-400 μl samples of the organ bath solutions by means of a selective and sensitive radioimmunoassay method developed in our laboratories and described in details in several previous papers (Nemeth et al. 1998, 1999, 2006; Helyes et al., 1997, 2001, 2006; Borzsei et al., 2008). The released amount of the peptides was calculated as fmol peptide per mg wet tissue (trachea). The absolute EFS-induced CGRP outflow in each experiment was calculated by taking off the basal release measured in the first (pre-stimulated) fraction from the second and third 8-min fractions and then adding these values. […]

T1 sequence (P31391 whole entry): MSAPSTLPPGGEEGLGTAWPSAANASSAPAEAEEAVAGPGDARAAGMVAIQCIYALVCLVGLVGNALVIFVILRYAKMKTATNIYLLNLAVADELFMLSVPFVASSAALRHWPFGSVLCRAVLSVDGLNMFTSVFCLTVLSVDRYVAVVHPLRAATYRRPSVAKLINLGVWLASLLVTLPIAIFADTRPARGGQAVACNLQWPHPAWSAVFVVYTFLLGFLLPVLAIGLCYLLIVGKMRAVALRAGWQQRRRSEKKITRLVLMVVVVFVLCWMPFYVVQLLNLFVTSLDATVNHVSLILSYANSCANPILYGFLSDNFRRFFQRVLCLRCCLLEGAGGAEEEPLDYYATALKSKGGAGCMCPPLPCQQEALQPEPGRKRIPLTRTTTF

Row | Structure (SMILES) | [35S]GTPγS binding (G-protein activation) (sst4 receptor) [%] | decrease of mechanical allodynia (rat [1]) [%] | melting point [°C] | reduction of mechanical hyperalgesia (rat [2]) [%] | inhibition on the absolute CGRP release [3] [%]
1 | Cc1c(C)n(Cc2ccccc2)c2ncnc(NCCc3cccc(O)c3)c12 [Example 58, 3-[2-(7-Benzyl-5,6-dimethyl-7H-pyrrolo[2,3-d]pyrimidin-4-ylamino)-ethyl]-phenol] | 194.5 | 64.7 | 208.7 to 209.2 |  | 
2 | Cc1c(C)n(Cc2ccccc2)c2ncnc(NCCc3ccc(O)cc3)c12 [Example 4, 4-[2-(7-Benzyl-5,6-dimethyl-7H-pyrrolo[2,3-d]pyrimidin-4-ylamino)-ethyl]-phenol] |  |  | 198 to 199 | 46 | 
3 | CC(=O)Nc1ccc(CCNc2ncnc3c2c(C)c(C)n3CCCN(C)C)cc1 [Example 51, N-(4-{2-[7-(3-Dimethylamino-propyl)-5,6-dimethyl-7H-pyrrolo[2,3-d]pyrimidin-4-ylamino]-ethyl}-phenyl)-acetamide] |  | 63 | 132.7 to 133.7 |  | 79.55
4 | Cc1c(C)n(Cc2ccccc2)c2ncnc(NCCc3cccc(Cl)c3)c12 [Example 39, (7-Benzyl-5,6-dimethyl-7H-pyrrolo[2,3-d]pyrimidin-4-yl)-[2-(3-chloro-phenyl)-ethyl]-amine] |  |  | 205 to 207 | 31 | 
